Values quoted from earlier work in patent US12653950B2, “Predictive biological homeostasis” (priority 2020, dated 2026).

Assays:
NF-κB = settings: pro-inflammatory signaling pathway involved in Lyme-induced inflammation
Borrelia burgdorferi = settings: one animal study (Pothineni et al. 2020)
[1] = in vivo
[2] = not given; remark: listed apart in the source

SMILES: COc1cc(/C=C/C(=O)CC(=O)/C=C/c2ccc(O)c(OC)c2)ccc1O [Curcumin]
- activation of NF-κB (NF-κB): blocking the activation

SMILES: CC1(C)S[C@@H]2[C@H](NC(=O)[C@H](NC(=O)N3CCNC3=O)c3ccccc3)C(=O)N2[C@H]1C(=O)O [azlocillin]
- killing of disease-causing bacteria Borrelia burgdorferi (Borrelia burgdorferi): completely kills off

SMILES: Nc1nc2c(ncn2COCCO)c(=O)[nH]1 [Acyclovir]
- toxic side effects in the kidneys [1]: toxic side effects in the kidneys

SMILES: O=c1c(O)c(-c2ccc(O)c(O)c2)oc2cc(O)cc(O)c12 [Quercetin]
- stability in physiological systems: unstable
- solubility in water [2]: poorly soluble
